# Measurements reported in patent US9512142B2, “Tricyclic triazolic compounds” (LABORATORIOS DEL DR. ESTEVE S.A., priority 2013, dated 2016).
# Biological target: T1, human sigma 1 receptor (Homo sapiens, UniProt Q99720)
# T1 construct: expressed in transfected cells; host or cells: HEK-293
# Test: Human sigma 1 receptor radioligand assay ([3H](+)-pentazocine, transfected HEK-293 membranes)
# Type: binding
# Conditions: 5 nM [3H](+)-pentazocine, transfected HEK-293 membranes, 37° C., 120 minutes; read-out: Ki
# Protocol: Human Sigma 1 Receptor Radioligand Assay
# The assay was carried out with 7 μg of membrane suspension, 5 nM of [^3H](+)-pentazocine in either absence or presence of either buffer or 10 μM Haloperidol for total and non-specific binding, respectively. Binding buffer contained Tris-HCl 50 mM at pH 8. Plates were incubated at 37° C. for 120 minutes. After the incubation period, the reaction mix was then transferred to MultiScreen HTS, FC plates (Millipore), filtered and plates were washed 3 times with ice-cold 10 mM Tris-HCL (pH7.4). Filters were dried and counted at approximately 40% efficiency in a MicroBeta scintillation counter (Perkin-Elmer) using EcoScint liquid scintillation cocktail.
# T1 sequence (Q99720 whole entry): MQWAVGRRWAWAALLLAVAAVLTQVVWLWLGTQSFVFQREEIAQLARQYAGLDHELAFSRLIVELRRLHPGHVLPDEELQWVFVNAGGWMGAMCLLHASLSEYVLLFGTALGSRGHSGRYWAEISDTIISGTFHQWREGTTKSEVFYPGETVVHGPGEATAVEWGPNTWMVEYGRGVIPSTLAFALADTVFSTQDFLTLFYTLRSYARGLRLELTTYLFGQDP
row,Structure (SMILES),Ki [nM]
1,"Cl.FC(F)(F)c1ccc(-c2nnn3c2CO[C@H]2CN(C4CCOCC4)C[C@@H]23)c(Cl)c1 [Example 55, (5aS,8aS)-3-(2-chloro-4-(trifluoromethyl)phenyl)-7-(tetrahydro-2H-pyran-4-yl)-4,5a,6,7,8,8a-hexahydropyrrolo[3,4-b][1,2,3]triazolo[1,5-d][1,4]oxazine hydrochloride]",23.3
2,"Cl.Fc1ccc(-c2nnn3c2CO[C@@H]2CN(CC4CCOCC4)C[C@H]23)c(Cl)c1 [Example 42, (5aR,8aR)-3-(2-chloro-4-fluorophenyl)-7-((tetrahydro-2H-pyran-4-yl)methyl)-4,5a,6,7,8,8a-hexahydropyrrolo[3,4-b][1,2,3]triazolo[1,5-d][1,4]oxazine hydrochloride]",33.3

# Continued, values first:
row,Ki [nM],Structure (SMILES)
1,97.6,"Cl.Fc1ccccc1-c1nnn2c1CO[C@@H]1CN(C[C@@H]3CCOC3)C[C@H]12 [Example 16, (5aR,8aR)-3-(2-fluorophenyl)-7-(((S)-tetrahydrofuran-3-yl)methyl)-4,5a,6,7,8,8a-hexahydropyrrolo[3,4-b][1,2,3]triazolo[1,5-d][1,4]oxazine hydrochloride]"
2,171,"Cl.Fc1ccccc1-c1nnn2c1CO[C@@H]1CN(C[C@H]3CCOC3)C[C@H]12 [Example 18, (5aR,8aR)-3-(2-fluorophenyl)-7-(((R)-tetrahydrofuran-3-yl)methyl)-4,5a,6,7,8,8a-hexahydropyrrolo[3,4-b][1,2,3]triazolo[1,5-d][1,4]oxazine hydrochloride]"
3,272,"COc1ccc(CN2C[C@@H]3OCc4c(-c5ccc(F)cc5F)nnn4[C@H]3C2)cn1.Cl [Example 52, (5aS,8aS)-3-(2,4-difluorophenyl)-7-((6-methoxypyridin-3-yl)methyl)-4,5a,6,7,8,8a-hexahydropyrrolo[3,4-b][1,2,3]triazolo[1,5-d][1,4]oxazine hydrochloride]"

# System: not listed separately
# Test: Kinetic solubility
# Type: physicochemical
# Conditions: aqueous buffer, kinetic from dmso stock; buffered aqueous solution at pH=7.4, 10 μL of 10 mM DMSO solution in 1 mL, stirred 4 hours, supernatant by liquid chromatography; read-out: Kin. Solub.
# Protocol: To a buffered aqueous solution at pH=7.4 (1 mL), a 10 mM DMSO solution of the test compound (10 μL) was added and the mixture stirred for 4 hours. After centrifugation, the compound concentration in the supernatant was determined by liquid chromatography by fitting in a calibration curve of the compound.
row,Structure (SMILES),solubility at 4 h [µM]
1,"Cl.FC(F)(F)c1ccc(-c2nnn3c2CO[C@H]2CN(C4CCOCC4)C[C@@H]23)c(Cl)c1 [Example 55, (5aS,8aS)-3-(2-chloro-4-(trifluoromethyl)phenyl)-7-(tetrahydro-2H-pyran-4-yl)-4,5a,6,7,8,8a-hexahydropyrrolo[3,4-b][1,2,3]triazolo[1,5-d][1,4]oxazine hydrochloride]",> 10
2,"Cl.Fc1ccc(CN2C[C@@H]3OCc4c(-c5ccccn5)nnn4[C@H]3C2)cc1 [Example 25, (5aS,8aS)-7-(4-fluorobenzyl)-3-(pyridin-2-yl)-4,5a,6,7,8,8a-hexahydropyrrolo[3,4-b][1,2,3]triazolo[1,5-d][1,4]oxazine hydrochloride]",> 10
3,"Cl.Fc1ccc(CN2C[C@@H]3[C@@H](C2)OCc2c(C4CCOCC4)nnn23)cc1 [Example 64, (5aR,8aR)-7-(4-fluorobenzyl)-3-(tetrahydro-2H-pyran-4-yl)-4,5a,6,7,8,8a-hexahydropyrrolo[3,4-b][1,2,3]triazolo[1,5-d][1,4]oxazine hydrochloride]",> 10
4,"Cl.Fc1ccccc1-c1nnn2c1CO[C@@H]1CN(C3CCOCC3)C[C@H]12 [Example 7, (5aR,8aR)-3-(2-fluorophenyl)-7-(tetrahydro-2H-pyran-4-yl)-4,5a,6,7,8,8a-hexahydropyrrolo[3,4-b][1,2,3]triazolo[1,5-d][1,4]oxazine hydrochloride]",> 10
5,"Cl.Fc1ccccc1-c1nnn2c1CO[C@@H]1CN(Cc3cccnc3)C[C@H]12 [Example 1, (5aR,8aR)-3-(2-fluorophenyl)-7-(pyridin-3-ylmethyl)-4,5a,6,7,8,8a-hexahydropyrrolo[3,4-b][1,2,3]triazolo[1,5-d][1,4]oxazine hydrochloride]",> 20
6,"Cl.Fc1ccccc1-c1nnn2c1CO[C@@H]1CN(Cc3ccccn3)C[C@H]12 (racemic) [Example 3, (5aRS,8aRS)-3-(2-fluorophenyl)-7-(pyridin-2-ylmethyl)-4,5a,6,7,8,8a-hexahydropyrrolo[3,4-b][1,2,3]triazolo[1,5-d][1,4]oxazine hydrochloride]",> 10
7,"Cl.Clc1ccc(-c2nnn3c2CO[C@@H]2CN(CC4CCOCC4)C[C@H]23)c(Cl)c1 [Example 44, (5aR,8aR)-3-(2,4-dichlorophenyl)-7-((tetrahydro-2H-pyran-4-yl)methyl)-4,5a,6,7,8,8a-hexahydropyrrolo[3,4-b][1,2,3]triazolo[1,5-d][1,4]oxazine hydrochloride]",> 10

# Same assay, conditions: buffered aqueous solution at pH=7.4, 10 μL of 10 mM DMSO solution in 1 mL, stirred 4 hours, supernatant by liquid chromatography; read-out: Kin. Solub.
row,solubility at 4 h [µM],Structure (SMILES)
1,3.9,"Fc1ccc(CN2C[C@@H]3[C@@H](C2)OCc2c(-c4cccc(F)c4)nnn23)cc1 [drawing 121, reference compound]"

# Same assay, conditions: buffered aqueous solution, pH 7.4, aqueous buffer, kinetic from dmso stock, buffered aqueous solution at pH=7.4, 10 μL of 10 mM DMSO solution in 1 mL, stirred 4 hours, supernatant by liquid chromatography; read-out: Kin. Solub.
row,Structure (SMILES),solubility at 4 h [µM]
1,"Cl.Fc1ccc(-c2nnn3c2CO[C@@H]2CN(CC4CCOCC4)C[C@H]23)c(Cl)c1 [Example 42, (5aR,8aR)-3-(2-chloro-4-fluorophenyl)-7-((tetrahydro-2H-pyran-4-yl)methyl)-4,5a,6,7,8,8a-hexahydropyrrolo[3,4-b][1,2,3]triazolo[1,5-d][1,4]oxazine hydrochloride]",> 10
2,"Cl.Clc1ccc(-c2nnn3c2CO[C@H]2CN(CC4CCOCC4)C[C@@H]23)c(Cl)c1 [Example 45, (5aS,8aS)-3-(2,4-dichlorophenyl)-7-((tetrahydro-2H-pyran-4-yl)methyl)-4,5a,6,7,8,8a-hexahydropyrrolo[3,4-b][1,2,3]triazolo[1,5-d][1,4]oxazine hydrochloride]",> 10
3,"Cl.Fc1ccc(-c2nnn3c2CO[C@H]2CN(CCC4CCOCC4)C[C@@H]23)c(F)c1 [Example 41, (5aS,8aS)-3-(2,4-difluorophenyl)-7-(2-(tetrahydro-2H-pyran-4-yl)ethyl)-4,5a,6,7,8,8a-hexahydropyrrolo[3,4-b][1,2,3]triazolo[1,5-d][1,4]oxazine hydrochloride]",> 10
4,"Cl.Fc1ccc(-c2nnn3c2CO[C@@H]2CN(CCC4CCOCC4)C[C@H]23)c(F)c1 [Example 40, (5aR,8aR)-3-(2,4-difluorophenyl)-7-(2-(tetrahydro-2H-pyran-4-yl)ethyl)-4,5a,6,7,8,8a-hexahydropyrrolo[3,4-b][1,2,3]triazolo[1,5-d][1,4]oxazine hydrochloride]",> 10
5,FC(F)(F)c1ccc(-c2nnn3c2COC2CN(Cc4ccccc4)C[C@H]23)cc1 (some centres unmarked) [reference compound],< 0.4
6,Clc1ccc(-c2nnn3c2COC2CN(Cc4ccccc4)C[C@H]23)cc1 (some centres unmarked) [reference compound],0.93
7,Fc1ccc(CN2C[C@@H]3OCc4c(-c5ccccc5F)nnn4[C@H]3C2)cc1 [reference compound],3.08
8,"Fc1ccc(CN2C[C@@H]3[C@@H](C2)OCc2c(-c4cccc(F)c4)nnn23)cc1 [drawing 113, reference compound]",3.4
9,Clc1cc(Cl)nc(N2CC3OCc4c(-c5ccccc5)nnn4[C@@H]3C2)n1 (some centres unmarked) [reference compound],< 1
10,"CCOc1ccc(CN2C[C@@H]3OCc4c(-c5ccccc5F)nnn4[C@H]3C2)cn1.Cl [Example 20, (5aS,8aS)-7-((6-ethoxypyridin-3-yl)methyl)-3-(2-fluorophenyl)-4,5a,6,7,8,8a-hexahydropyrrolo[3,4-b][1,2,3]triazolo[1,5-d][1,4]oxazine hydrochloride]",> 10
11,"Cl.Fc1ccc(CN2C[C@@H]3OCc4c(C5CCOCC5)nnn4[C@H]3C2)cc1 [Example 65, (5aS,8aS)-7-(4-fluorobenzyl)-3-(tetrahydro-2H-pyran-4-yl)-4,5a,6,7,8,8a-hexahydropyrrolo[3,4-b][1,2,3]triazolo[1,5-d][1,4]oxazine hydrochloride]",> 10
12,"Cl.Fc1ccc(-c2nnn3c2CO[C@@H]2CN(C4CCOCC4)C[C@H]23)cc1 [Example 5, (5aR,8aR)-3-(4-fluorophenyl)-7-(tetrahydro-2H-pyran-4-yl)-4,5a,6,7,8,8a-hexahydropyrrolo[3,4-b][1,2,3]triazolo[1,5-d][1,4]oxazine hydrochloride]",> 10
13,Fc1ccc(-c2nnn3c2CO[C@@H]2CN(Cc4ccccc4)C[C@H]23)cc1 [reference compound],1.82

# Next, values leading:
row,solubility at 4 h [µM],Structure (SMILES)
1,> 10,"Cl.Fc1ccccc1-c1nnn2c1CO[C@@H]1CN(C[C@@H]3CCOC3)C[C@H]12 [Example 16, (5aR,8aR)-3-(2-fluorophenyl)-7-(((S)-tetrahydrofuran-3-yl)methyl)-4,5a,6,7,8,8a-hexahydropyrrolo[3,4-b][1,2,3]triazolo[1,5-d][1,4]oxazine hydrochloride]"
2,> 10,"Cl.Fc1ccccc1-c1nnn2c1CO[C@@H]1CN(C[C@H]3CCOC3)C[C@H]12 [Example 18, (5aR,8aR)-3-(2-fluorophenyl)-7-(((R)-tetrahydrofuran-3-yl)methyl)-4,5a,6,7,8,8a-hexahydropyrrolo[3,4-b][1,2,3]triazolo[1,5-d][1,4]oxazine hydrochloride]"
3,> 10,"COc1ccc(CN2C[C@@H]3OCc4c(-c5ccc(F)cc5F)nnn4[C@H]3C2)cn1.Cl [Example 52, (5aS,8aS)-3-(2,4-difluorophenyl)-7-((6-methoxypyridin-3-yl)methyl)-4,5a,6,7,8,8a-hexahydropyrrolo[3,4-b][1,2,3]triazolo[1,5-d][1,4]oxazine hydrochloride]"
4,> 10,"Cl.Fc1ccc(CN2C[C@@H]3[C@@H](C2)OCc2c(-c4ccccn4)nnn23)cc1 [Example 24, (5aR,8aR)-7-(4-fluorobenzyl)-3-(pyridin-2-yl)-4,5a,6,7,8,8a-hexahydropyrrolo[3,4-b][1,2,3]triazolo[1,5-d][1,4]oxazine hydrochloride]"
5,> 10,"Cl.Fc1ccccc1-c1nnn2c1CO[C@H]1CN(C3CCOCC3)C[C@@H]12 [Example 6, (5aS,8aS)-3-(2-fluorophenyl)-7-(tetrahydro-2H-pyran-4-yl)-4,5a,6,7,8,8a-hexahydropyrrolo[3,4-b][1,2,3]triazolo[1,5-d][1,4]oxazine hydrochloride]"
6,> 10,"Cl.Fc1ccc(-c2nnn3c2CO[C@@H]2CN(C4CCOCC4)C[C@H]23)c(F)c1 [Example 28, (5aR,8aR)-3-(2,4-difluorophenyl)-7-(tetrahydro-2H-pyran-4-yl)-4,5a,6,7,8,8a-hexahydropyrrolo[3,4-b][1,2,3]triazolo[1,5-d][1,4]oxazine hydrochloride]"
7,7.8,Clc1ccc(-c2nnn3c2CO[C@@H]2CN(Cc4ccccc4)C[C@H]23)c(Cl)c1 [reference compound]
8,2.1,COc1ccc(-c2nnn3c2CO[C@H]2CN(Cc4ccccc4)C[C@@H]23)cc1 [reference compound]
9,2.13,Fc1ccc(CN2C[C@@H]3[C@@H](C2)OCc2c(-c4ccc(F)cc4F)nnn23)cc1 [reference compound]
